Experimental data published in US10301355B2, “Method of using pharmaceutical compositions comprising selective peptide-based agonists of melanocortin 1 receptor” (University of Cincinnati, priority 2012, dated 2019).

Key:
[1] = test system: human melanocytes; experiment: Potency in human melanocytes; type: cell-based
[2] = test system: mouse MCRs; conditions: cited from earlier work

Substance: trans-4-HOC6H4CH═CHCO-His-D-Phe-Arg-NH2
- potency in human melanocytes [1]: less potent in human melanocytes
- MC1R selectivity and potency compared to tripeptide LK-394 [2]: moderately increased MC1R selectivity and potency
